Measured values as given in patent US20060049052A1, “Ampholytic buffer having high buffering capacity and high conductivity in isoelectric form” (The Texas A&M University System, priority 2004, published 2006).
Counter-ions that a name gives are not always drawn.

Columns and labels:
[1] = Conductivity, pH and buffering capacity of 50 mM solutions of ampholytic buffers; type: physicochemical; details: 50 mM solution
Protocol: The conductivities, pH values and buffering capacities of 50 mM solutions of some of the ampholytic buffers of the present invention are listed in Table 1. For comparison purposes, values for histidine (HIS), a widely used low conductivity ampholytic buffer are also included.

[2] = indirect UV detection CE, bare fused silica capillary, 15 kV, T=25, UV 214 nm, BGEs of varied pH
Protocol: Using a 26 :m I.D. bare fused silica capillary, Lt=26.1 cm, Ld=19.7 cm at 15 kV in positive to negative polarity, T=25 EC, UV detector set at 214 nm, conventional CE was carried out in 20 mM tris(hydroxymethyl) aminomethane (Tris) and 20 mM benzylamine BGEs titrated with pTSA.
Using a 26 :m I.D. bare fused silica capillary, Lt=26.1 cm, Ld=19.7 cm at 15 kV in positive to negative polarity, T=25 EC, and the UV detector set at 214 nm, conventional CE was carried out in 20 mM acetic acid BGEs titrated with imidazole and 20 mM pyridine BGEs titrated with pTSA.

[3] = pH of concentrated aqueous solution of the isoelectric buffer after desalting in IET apparatus (equal to pI); type: physicochemical; details: isoelectric state after IET desalting
Source text: The aqueous solution was desalted and the ampholytic buffer brought to isoelectric state in an IET apparatus. The pH of the concentrated aqueous solution of isoelectric BCPDEAH was 3.8, equal to its pI value. After liophylization, the solid product was characterized by ^1H- and ^13C-NMR. […] The identity and purity of the final product were further confirmed by high resolution ESI-MS. Only signals corresponding to BCPDEAH and its fragment ions are seen.

SMILES | Buffering capacity [1] | Conductivity [1] | pH [1] | pI [2] | pH of the concentrated aqueous solution of isoelectric form, equal to its pI value [3]
CN(C)CC(CN(C)C)OS(=O)(=O)O [BDASP, 1,3-bis(N,N-dimethylamino)-2-O-sulfo-propane] | 25.0 mM/pH | 25.8 mS/m | 7.82 | ~8.0 | 
CC[N+](CC)(CCCC(=O)[O-])CCCC(=O)O [BCPDEAH, N,N-bis(carboxypropyl)diethyl ammonium hydroxide, inner salt] | 35.7 mM/pH | 18.4 mS/m | 4.15 |  | 3.8
N[C@@H](Cc1c[nH]cn1)C(=O)O [HIS, histidine, reference compound] | 12.5 mM/pH | 3.5 mS/m | 7.44 |  | 
O=S(=O)(O)OC(CN1CCCCC1)CN1CCCCC1 [DPSP, 1,3-dipiperidino-2-O-sulfo-propane] | 20.8 mM/pH | 18.1 mS/m | 8.35 | 8.9 | 
O=S(=O)(O)OC(CN1CCOCC1)CN1CCOCC1 [DMSP, 1,3-dimorpholino-2-O-sulfo-propane] | 14.7 mM/pH | 7.3 mS/m | 5.79 | 5.8 | 
CCCN(CCC)CC(CN(CCC)CCC)OS(=O)(=O)O [BDPSP, 1,3-bis(dipropylamino)-2-O-sulfo-propane] |  |  |  | 8.7 | 
